Data set [1] can be described thus: Cytotoxicity, MTT reduction assay, HELA cells. The format is cell-based. The following applies: human. The method, then: (§1) Namalwa cells (CXCR4 natively expressing non-adherent cells, ATCC CRL-1432) were cultured in RPMI1640 plus 10% FBS, and pen/strept. HELA cells were maintained in RPMI1640 plus 10% FBS, pen/strept and 2 mM L-glutamine. Cos-7 cells were grown in DMEM medium with […] glucose supplemented with 10% FCS, pen/strept and 2 mM L-glutamine. All cell lines were grown at 37° C. at 5% CO2. Cell media, media supplements, PBS-buffer, HEPES, antibiotic/antimycotic, pen/strept, non essential amino acid, L-glutamine, β-mercaptoethanol and sera were purchased from Gibco (Pailsey, UK). All fine chemicals were supplied by Merck (Darmstadt, Germany).
(§2) The cytotoxicity of the peptides to HELA cells (Acc57) and COS-7 cells (CRL-1651) was determined using the MTT reduction assay (T. Mossman, J. Immunol. Meth. 1983, 65, 55-63; M. V. Berridge, A. S. Tan, Arch. Biochem. Biophys. 1993, 303, 474-482). Briefly, the method was as follows: 4000 HELA cells/well and 3400 COS-7 cells/well were seeded and grown in 96-well microtiter plates for 24 h at 37° C. at 5% CO2. Thereafter, time zero (Tz) was determined by MTT reduction (see below). The supernatant of the remaining wells was discarded, and fresh medium and compounds in serial dilutions (12.5, 25 and 50 μM, triplicates; 0 μM, blank) were pipetted into the wells. After incubation of the cells for 48 h at 37° C. at 5% CO2 the supernatant was discarded again and 100 μL MTT reagent (0.5 mg/mL in RPMI1640 and DMEM, respectively)/well was added. Following incubation at 37° C. for 2-4 h the media were aspirated and the cells were spiked (100 μL isopropanol/well). The absorbance of the solubilized formazan was measured at 595 nm (OD595peptide). For each concentration averages were calculated from triplicates. The percentage of growth was calculated as follows: (OD595peptide−OD595Tz)/(OD595blank−OD595Tz)×100%. The GI50 (Growth Inhibition) concentrations were calculated for each peptide by using a trend line function for the concentrations (50, 25, 12.5 and 0 μM), the corresponding percentages and the value 50, (=TREND (C50:C0,%50:%0,50).

A short description of data set [2]: Cytotoxicity, MTT reduction assay, COS-7 cells. The conditions noted are these: African green monkey. It counts as cell-based. The method, then: as §1, §2
Data set [3] in a line: Plasma stability, human plasma. The following applies: 37° C., 1440 min, read-out: human pl. cpd left at 1440 min. The format is in vitro ADME. On the procedure: (§3) The stability of the peptides in human and mouse plasma was determined by applying the following method: 346.5 μL/deep well of freshly thawed human plasma (Basler Blutspende-dienst) and mouse plasma (Harlan Sera-Lab, UK), respectively, were spiked with 3.5 μL/well of compound dissolved in DMSO/H2O (90/10 [v/v], 1 mM, triplicate) and incubated at 37° C. At t=0, 15, 30, 60, 120, 240 and 1440 min aliquots of 50 μL were transferred to filtration plate wells containing 150 μL/well of 2% formic acid in acetonitrile. Following shaking for 2 min the occurred suspensions were filtrated by vacuum. 100 μL of each filtrate were transferred to a propylene microtiter plate and dried under N2. The residual solids were reconstituted by adding 100 μL/well of water/acetonitrile, 95/5 (v/v)+0.2% formic acid and analyzed by LC/MS as follows: Column: Waters, XBridge C18, mobile phases: (A) water+0.1% formic acid and (B) acetonitrile/water, 95/5 (v/v)+0.1% formic acid, gradient: 5%-100% (B) in 1.8 minutes, electrospray ionization, MRM detection (triple quadrupole). The peak areas were determined and triplicate values are averaged. The stability is expressed in percent of the initial value at t=0·(tx/t0×100). By using the TREND function of EXCEL (Microsoft Office 2003) T1/2 were determined.

Data set [4] in a line: Plasma stability, mouse plasma. The conditions noted are these: 37° C. It counts as in vitro ADME. The method, then: as §3
The nature of another data set: Plasma protein binding. The format is in vitro ADME. The following applies: human, plasma. The method, then: 495 μL aliquots of human plasma (Basler Blutspendedienst) as well as 495 μL aliquots of PBS were placed in individual deepwells of a polypropylene plate (Greiner) and spiked each with 5 μL of 1 mM solutions of peptides in 90% DMSO. After shaking the plate for 2 min at 600 rpm 150 μL aliquots of the plasma/peptide mixtures were transferred in triplicates to the polypropylene filter plate (10 kDa, Millipore) whereas 150 μL aliquots of the PBS/peptide mixtures were transferred either to the individual wells of the filter plate (filtered controls) or directly into the individual wells of the receiving plate (Greiner) (non-filtered controls). The plate sandwich consisting of filter and receiving plate was incubated for 1 h at 37° C. and subsequently centrifuged at 3220 g for 2 h at 15° C. The filtrates in the receiving plate were analysed by LC/MS as follows: Column: Waters, XBridge C18, mobile phases: (A) water+0.1% formic acid and (B) acetonitrile/water, 95/5 (v/v)+0.1% formic acid, gradient: 5%-100% (B) in 1.8 min, electrospray ionization, MRM detection (triple quadrupole). The peak areas were determined and triplicate values are averaged. The binding is expressed in percent of the filtered and non-filtered controls by 100−(100×T1h/Tctr). Finally the average of these values is calculated.

The record followed here is patent US9556231B2, “Beta-hairpin peptidomimetics as CXC4 antagonists” (POLYPHOR AG, priority 2011, dated 2017).

Read-outs that look alike come from different tables or passages of the source. Bridge positions count the residues as written; N and C are the ends. Square brackets hold non-standard residues; d marks the D form. Peptide text beside a SMILES is read from it. Lys(iPr) = CC(C)NCCCC[C@H](N)C(=O)O; Orn(iPr) = CC(C)NCCC[C@H](N)C(=O)O

Consider `COc1ccc(C[C@@H]2NC(=O)[C@H](Cc3c[nH]cn3)NC(=O)[C@H](Cc3ccc(O)cc3)NC(=O)[C@@H]3CCCN3C(=O)[C@H]3CCCN3C(=O)[C@H](CCCCNC(C)C)NC(=O)[C@H](CCC(N)=O)NC(=O)[C@H](Cc3ccc(O)cc3)NC(=O)[C@@H]3CSSC[C@H](NC2=O)C(=O)N[C@@H](CO)C(=O)N[C@@H](C)C(=O)N2CCC[C@@H]2C(=O)N[C@@H](CCCNC(C)C)C(=O)N[C@@H](CCCNC(=N)N)C(=O)N[C@@H](Cc2ccc(O)cc2)C(=O)N3)cc1` [Ex. 2, cyclo(-Tyr^1-His^2-Tyr(Me)^3-Cys^4-Ser^5-Ala^6-^DPro^7-Orn(iPr)^8-Arg^9-Tyr^10-Cys^11-Tyr^12-Gln^13-Lys(iPr)^14-^DPro^15-Pro^16-), disulfide bond between Cys^4 and Cys^11] (cyclo(YHY(Me)CSA[dP][Orn(iPr)]RYCYQ[Lys(iPr)][dP]P); disulfide 4-11), for which the GI50 at 48 h was above 41 µM in data set [1] and above 50 µM in data set [2]. Besides, the remaining at 24 h in data set [3] came to 100%; in data set [4] (1440 min, read-out: mouse pl. cpd left at 1440 min) it was 100%. The “mouse pl. T1/2” value in data set [4] (up to 1440 min) turned out to be 24 h. Besides, the fraction unbound in the data set “Plasma protein binding” (read-out: Fraction unbound, fu) is 0.52; in the data set “Plasma protein binding” (ultrafiltration 10 kDa, read-out: Plasma protein binding (converted)) it was 0.52.
